Test results: article PMC11360180, “Enhancement of Antimicrobial Function by L/D-Lysine Substitution on a Novel Broad-Spectrum Antimicrobial Peptide, Phylloseptin-TO2: A Structure-Related Activity Research Study” (Pharmaceutics, 2024)
Where a SMILES comes first, the peptide text is derived from it. Where no end group is shown, it is not given here. [ ]: non-standard residue; d: D form.

Key:
[1] = system: HaCat; format: cell-based; conditions: 24 h
Protocol: The percentage of cancer cell survival after being treated with peptides was assessed with 3-(4,5-dimethylthiazol-2-yl-)-2,5-diphenyltetrazolium bromide (MTT). The principle is the reduction process of the yellow tetrazolium to DMSO-soluble formazan crystals caused by the metabolic capability of living cells. All the cancerous and normal cells were obtained from the American Type Culture Collection (Rockville, VA, USA). Human lung cancer NCI-H838 and NCI-H460 were cultured in Roswell Park Memorial Institute (RPMI)-1640 medium (Gibco, Paisley, UK) and mixed with 10% (v/v) fetal bovine serum (FBS) (Gibco, Campinas, Brazil) and 1% penicillin–streptomycin (Gibco, Grand Island, NY, USA) 89/10/1 v/v/v). U251MG and MCF-7 were cultured in Dulbecco’s Modified Eagle medium (DMEM) (Gibco, Paisley, UK) and mixed with 10% FBS and 1% penicillin–streptomycin. HCT 116 was cultured in McCoy’s 5A (modified) medium (Gibco, Paisley, UK) and mixed with 10% FBS and 1% penicillin–streptomycin. MRC-5 and HaCat were cultured in Minimum Essential Medium (MEM) (Gibco, Paisley, UK) and mixed with 10% FBS and 1% penicillin–streptomycin. Cells were cultured and seeded in a 96-well plate at a density of 8000 cells/well with the corresponding medium and incubated for 24 h at 37 °C with 5% CO2. After 24 h of incubation, the cells were starved with a serum-free medium for 4 h at 37 °C. Then, the cells were incubated with different concentrations of peptide solution in a serum-free medium from 1 nM to 100 µM at 37 °C for 24 h. Meanwhile, triton X-100 (0.1%) (Sigma-Aldrich, St. Louis, MO, USA) and PBS were chosen as positive and negative controls. After 10 µL of MTT (5 mg/mL) was added to each well away from light and incubated at 37 °C for 2 h, the formazan generated by mitochondria was dissolved with DMSO. The absorbance was detected at a wavelength of 570 nm by a Synergy HT plate reader (Bio-Tek, Shoreline, WA, USA).

[2] = system: MRSA (ATCC 12493) biofilm; format: cell-based, methicillin-resistant Staphylococcus aureus; conditions: ATCC 12493, 24 h
Protocol: To test the anti-biofilm ability of PSTO2 and its analogues, three types of microorganisms (S. aureus ATCC® 6538, E. coli ATCC® 8739, and MRSA NCTC® 12493) were chosen. Tryptic soy broth (TSB) and Lysogeny broth (LB) were used to culture microorganisms. The peptide was dissolved in an autoclaved PBS solution and diluted into concentrations ranging from 51,200 µM to 100 µM. One µL of peptide solution of each concentration was added into a 96-well plate with 100 µL bacterium at 5 × 10^5 CFU/mL. The plate was incubated at 37 °C for 24 h, with shaking at 200 rpm. After overnight incubation, the planktonic bacteria were washed up. Then, 100 µL of methanol was used to fix the biofilms onto the bottom, and 100 µL of 0.1% crystal violet solution (Sigma-Aldrich, Gillingham, UK) was added to each well to stain the biofilms. After drying, 160 µL of acetic acid (30% in deionised water, Sigma-Aldrich, UK) was added to each well to dissolve the shaded parts. The absorbance was detected with the Synergy HT plate reader at λ = 595 nm.
For the MBEC assay, 100 µL of the bacterium of 5 × 10^5 CFU/mL was transferred into an empty 96-well plate, and the plate was incubated at 37 °C for 24 h to obtain the biofilms primarily. Then, the peptide solution from 512 µM to 1 µM was transferred into a corresponding well, followed by 24 h incubation at 37 °C, with shaking at 200 rpm. After this, the plate was handled using the identical method to the plate in the MBIC assay, and the absorbance of each well was detected with the Synergy HT plate reader at λ = 595 nm. The minimum concentration at which the peptide can eradicate the existing biofilm was recorded as the MBEC value.

[3] = system: A. baumannii (BAA 747); format: cell-based, Acinetobacter baumanni; conditions: BAA 747, 24 h
Description: Seven microorganism strains were used to preliminarily evaluate the antimicrobial activity of PSTO2 and its analogues, including Staphylococcus aureus (S. aureus) (ATCC® 6538), methicillin-resistant Staphylococcus aureus (MRSA) (NCTC® 12493), Enterococcus faecalis (E. faecalis) (NCTC® 12697), E. coli (ATCC® 8739), Klebsiella pneumonia (K. pneumonia) (ATCC® 43816), Pseudomonas aeruginosa (P. aeruginosa) (ATCC® CRM 9027), Acinetobacter baumanni (A. baumanni) (BAA® 747), and Candida albicans (C. albicans) (ATCC® 10231). In this study, the strains were cultured in Mueller–Hinton broth (MHB), nutrient broth (NB), and yeast–peptone–dextrose broth (YPD-B) correspondingly at 37 °C, with shaking at 120 rpm. Each peptide was dissolved from 128 μM to 1 μM and mixed with the bacterium at 5 × 10^5 CFU/mL. In this process, bacteria with culture medium were used as the growth control group; PBS was set up as the vehicle control group; sterile culture medium was used as the blank control group; and Norfloxacin at a concentration of 2 mg/mL and amphotericin B at a concentration of 1 mg/mL were set up as the positive control group for bacteria and fungi, respectively.
After being incubated for 24 h, a Synergy HT plate reader (Bio-Tek, Shoreline, WA, USA) was used to detect the absorbance of each well in the 96-well plate at λ = 550 nm. The concentration at which no visible turbidity could be recorded was the MIC value. Beginning from the MIC value, 10 µL of solution in each clear well was dropped on the sterile agar plates. The plate was checked the next day for colony formation, and the lowest concentration at which no colony growing was recorded as an MBC value.

[4] = system: horse red blood cells; format: cell-based
Protocol: To assess the haemolytic activity of PSTO2 and its analogues, 2% fresh defibrinated horse red blood cells (TCS Biosciences Ltd., Buckingham, UK) were acquired after being washed and resuspended in sterile PBS. Each peptide was dissolved in PBS to prepare solutions with concentrations ranging from 2 µM to 1024 µM. Subsequently, 100 µL of each peptide solution was mixed with 100 µL of the red blood cell suspension. The red blood cells treated with 1% triton X-100 and sterile PBS in equivalent volumes were set up as the positive and negative control groups, respectively. Then, all the samples were incubated at 37 °C for 2 h. Thereafter, the samples were centrifuged at 900× g for 10 min. Finally, 100 µL of supernatant of each sample was transferred into a 96-well plate, and the absorbance was recorded by a Synergy HT plate reader (Bio-Tek, Shoreline, WA, USA) at a wavelength of 570. The following equation was used to calculate haemolysis activity:Haemolysis activity = (Sample absorbance − Ab)/(Ap − Ab) × 100% where Ab refers to the mean value of absorbance of the negative control (incubated with PBS only), and Ap refers to the mean absorbance value of the positive control (incubated with triton X-100).

| Compound | IC50 [1] [µM] | MBEC [2] [µM] | MBIC [2] [µM] | MBC [3] | MIC [3] | HC10 [4] |
| --- | --- | --- | --- | --- | --- | --- |
| CC[C@H](C)[C@H](NC(=O)[C@H](C)NC(=O)[C@@H](CCCCN)NC(=O)[C@@H]1CCCN1C(=O)[C@@H](NC(=O)[C@H](CC(C)C)NC(=O)[C@H](CO)NC(=O)[C@H](CC(C)C)NC(=O)[C@@H](N)Cc1ccccc1)[C@@H](C)CC)C(=O)N[C@@H](CCCCN)C(=O)N[C@@H](C)C(=O)N[C@H](C(=O)N[C@@H](CCCCN)C(=O)N[C@@H](C)C(=O)N[C@@H](CC(C)C)C(=O)N[C@@H](C)C(=O)N[C@@H](CCCCN)C(=O)N[C@H](CCCCN)C(=O)N[C@@H](CC(C)C)C(N)=O)C(C)C [SR2D10] (H-FLSLIP[dK]AIKAVKALAK[dK]L-NH2) | 84.03 | 32 | 16 | 16/16 μM | 16/16 μM | 75.24 |
| CC[C@H](C)[C@H](NC(=O)[C@H](C)NC(=O)[C@@H](CCCCN)NC(=O)[C@@H]1CCCN1C(=O)[C@@H](NC(=O)[C@H](CC(C)C)NC(=O)[C@H](CO)NC(=O)[C@H](CC(C)C)NC(=O)[C@@H](N)Cc1ccccc1)[C@@H](C)CC)C(=O)N[C@@H](CCCCN)C(=O)N[C@@H](C)C(=O)N[C@H](C(=O)N[C@@H](CO)C(=O)N[C@@H](C)C(=O)N[C@@H](CC(C)C)C(=O)N[C@@H](C)C(=O)N[C@@H](CCCCN)C(=O)N[C@@H](CCCCN)C(=O)N[C@@H](CC(C)C)C(N)=O)C(C)C [SRD7] (H-FLSLIP[dK]AIKAVSALAKKL-NH2) | 77.89 | 16 | 4 | 16/16 μM |  | 74.78 |
| FLSLIPKAIKAVKALAKKL-NH2 [SR2] | 3.48 | 16 |  | 2/2 μM |  | 6.53 |
| FLSLIPKAIKAVSALAKKL-NH2 [SR] | 4.13 | 16 |  | 4/4 μM |  | 12.60 |
